What was measured:
PDAC cells [1] = experiment: Clonogenic assay; assay type: cell-based, human; details: for rescue of clonogenic growth upon Gln deprivation: Gln-free medium supplemented with metabolite, FIG. 5, 22, 26, 29; for sensitivity of clonogenic growth upon Kras knockdown: 8988T cells expressing shKras; for sensitivity of clonogenic growth upon Kras knockdown / clonogenic growth: FIG. 34; for clonogenic growth: 8988T cells, control shRNA
Experimental: Cells were plated in 6-well plates at 300 cells per well in 2 mL of media. Cell culture media was not changed throughout the course of the experiment. After 7-10 days, colonies were fixed in 80% methanol and stained with 0.2% crystal violet.

[2] = system: IMR90 (human diploid fibroblasts); experiment: Cell proliferation assay, diploid fibroblasts; assay type: cell-based; details: FIG. 30A/30B
Experimental: (§1) Cells were plated in 24-well plates at 2,000 cells per well in 0.5 mL of media. To deprive Gln, cells were plated in complete culture medium (10 mM glucose and 2 mM Gln) which was exchanged with Gln-free culture medium supplemented with 10% dFBS the following day. Cell culture media was not changed throughout the course of the experiment. At the indicated time points, cells were fixed in 10% formalin and stained with 0.1% crystal violet. Dye was extracted with 10% acetic acid and the relative proliferation was determined by OD at 595 nm.

PDAC cells [3] = experiment: Cell proliferation assay (crystal violet); assay type: cell-based, human; details: for PDAC growth (relative growth): 8988T cells treated with inhibitor, FIG. 7A/7B
Experimental: as §1

[4] = system: HPDE (non-transformed human pancreatic ductal epithelial cells); experiment: Cell proliferation assay, non-transformed pancreatic ductal cells; assay type: cell-based; details: FIG. 30A/30B
Experimental: as §1

8988T cells = experiment: ROS quantification (DCFDA assay, flow cytometry); assay type: cell-based, human
Experimental: The DCFDA assay was performed 24 hr after supplementing Gln-free media with either OAA (4 mM) or dimethyl malate (4 mM). Cells were incubated with 5 μM 2′,7′-dichlorodihydrofluorescein diacetate (DCFDA, Invitrogen) for 30 min. Excess DCFDA was removed by washing the cells twice with PBS, and labeled cells were then trypsinized, rinsed, and resuspended in PBS. Oxidation of DCFDA to the highly fluorescent 2′,7′-dichloro-fluorescein (DCF) is proportionate to ROS generation and was analyzed by flow cytometry.

[5] = system: PDAC cells (8988T, Panc1); experiment: Sensitization of PDAC cells to ROS / cell viability with GLS inhibitors (Cell Titer Glo); assay type: cell-based, human; details: for relative cell viability (growth suppressive effect): 8988T or Panc1 cells, GLS inhibitor alone, FIG. 36; for relative cell viability, GLS inhibitor combined with H2O2: 8988T, Panc1, 968 or BPTES (100 nM) with increasing H2O2, FIG. 37, 38
Experimental: PDAC cell lines were plated into 96-well plates at 10^3 cells/well in 200 μL of growth medium. The following day, growth medium was replaced with that containing GLS inhibitors and/or H2O2. Parallel plates were analyzed at 3, 6 and 9 days by Cell Titer Glo analysis (Promega), per the manufacturer's instruction. […] BPTES was a kind gift from Jaime Escobedo (Forma Therapeutics, Watertown, Mass.).

Compound: N[C@@H](CCC(=O)N[C@@H](CS)C(=O)NCC(=O)O)C(=O)O [GSH, reduced glutathione]
- rescue of clonogenic growth upon Gln deprivation (PDAC cells [1]): dramatically rescued the clonogenic survival

Compound: COC(=O)CCC(=O)C(=O)OC [dimethyl αKG]
- rescue of clonogenic growth upon Gln deprivation (PDAC cells [1]): did not restore growth

Compound: NOCC(=O)O [AOA, aminooxyacetate]
- growth (relative growth) of IMR90 cells [2]: no significant effect on growth
- sensitivity of clonogenic growth upon Kras knockdown (PDAC cells [1]): significantly more resistant
- clonogenic growth (PDAC cells [1]): significantly inhibited clonogenic growth
- PDAC growth (relative growth) (PDAC cells [3]): robustly inhibited the growth
- growth (relative growth) of HPDE cells [4]: no significant effect on growth

Compound: O=C(O[C@@H]1Cc2c(O)cc(O)cc2O[C@@H]1c1cc(O)c(O)c(O)c1)c1cc(O)c(O)c(O)c1 [EGCG, Epigallocatechin Gallate]
- sensitivity of clonogenic growth upon Kras knockdown (PDAC cells [1]): sensitive
- clonogenic growth (PDAC cells [1]): minimal effects
- PDAC growth (relative growth) (PDAC cells [3]): little effect
- growth (relative growth) of HPDE cells [4]: significantly sensitive

Compound: COC(=O)CC(O)C(=O)OC (stereo not shown) [dimethyl-malate]
- rescue of PDAC cell growth upon GOT1 knockdown (PDAC cells [3]; 8988T cells expressing shGOT1, 4 mM supplement, FIG. 28): partially rescue PDAC cell growth
- rescue of cell proliferation upon Gln deprivation (PDAC cells [3]; Gln-free medium supplemented with metabolite, FIG. 6, 27): partially rescue PDAC cell growth
- ROS levels (DCFDA signal) upon GOT1 knockdown (8988T cells; 8988T cells expressing shGOT1, medium supplementation): rescued the oxidative stress
- ROS levels (DCFDA signal) upon Gln deprivation (8988T cells; Gln-free media supplemented 24 hr, 4 mM): rescued the oxidative stress

Compound: CN(C)c1ccc(C2Nc3ccc4ccccc4c3C3=C2C(=O)CC(C)(C)C3)cc1Br (stereo not shown) [compound 968]
- relative cell viability (growth suppressive effect) [5]: growth suppressive effect
- relative cell viability, GLS inhibitor combined with H2O2 [5]: dramatically augmented

Compound: O=C(Cc1ccccc1)Nc1nnc(CCSCCc2nnc(NC(=O)Cc3ccccc3)s2)s1 [BPTES]
- relative cell viability (growth suppressive effect) [5]: growth suppressive effect
- relative cell viability, GLS inhibitor combined with H2O2 [5]: dramatically augmented

Source: US10837015B2, “Targeting the glutamine to pyruvate pathway for treatment of oncogenic Kras-associated cancer” (Dana-Farber Cancer Institute, Inc., priority 2012, dated 2020)
